In patent US7973219B2, “Method for producing transgenic plants resistant to weed control compounds which disrupt the porphyrin pathways of plants” (Sumitomo Chemical Company, Limited, priority 1998, dated 2011):
Where two headings read alike, the source gives them in different places.

Columns and labels:
[1] = system: tobacco into which bchH gene was introduced; assay: Leaf piece chlorophyll test, tobacco into which bchH gene was introduced; format: in vivo; conditions: 0.3 ppm, Table 4; for activity at 0.3 ppm: Nicotiana tabacum, 168 h, 7 days in light, treated vs untreated leaf pieces, read-out: Resistant level to test compound; for Total chlorophyll content treated-leaf: leaf pieces 7 days in light place
Description: Then, according to the method described in Manual for Gene Manipulation of Plant (by Hirofumi UCHIMIYA, Kodan-sha Scientific, 1992), the gene was introduced into tobacco. Agrobacterium strain bearing plasmid pBIBCH was cultured at 28° C. overnight in LB medium and then leaf pieces of tobacco cultured sterilely were dipped in the liquid culture medium. The leaf pieces were cultured at room temperature for 2 days in Murashige-Skoog medium (MS-medium, described in Murasige T. and Skoog F., Physiol. Plant. (1962) 15, p 473) containing 0.8% agar, 0.1 mg/liter naphthalene acetic acid and 1.0 mg/liter benzyl aminopurine. Then, the leaf pieces were washed with sterilized water and cultured for 7 days on MS medium containing 0.8% agar, 0.1 mg/liter naphthalene acetic acid, 1.0 mg/liter benzyl aminopurine and 500 μg/ml cefotaxime. The leaf pieces were transplanted onto MS medium containing 0.8% agar, 0.1 mg/liter naphthalene acetic acid, 1.0 mg/liter benzyl aminopurine, 500 μg/ml cefotaxime and 100 μg/ml kanamycin (hereinafter referred to as selective MS medium) and cultured on the medium continuously for 4months with transplanting the tobacco leaf pieces onto fresh selective MS medium every 1 month. During culture, stem-leaf differentiated shoots were appeared from the tobacco leaf pieces, these shoots were transplanted to MS medium containing 0.8% agar, 300 μg/ml cefotaxime and 50 μg/ml kanamycin to induce roots to obtain regenerated plants. The resultant regenerated plant was transplanted and cultured on MS medium 0.8% agar and 50 μg/ml kanamycin to obtain tobacco plant into which bchH gene was introduced. Similarly, tobacco leaf pieces were infected with Agrobacterium strain bearing pNO to obtain regenerated plant from the tobacco leaf pieces and tobacco plant (hereinafter referred to as control recombinant tobacco).
The tobacco leaves into which bchH gene was introduced and control recombinant tobacco leaves obtained in Example 5 were collected and each leaf was divided into the right and left equivalent pieces along the main vein, respectively. To one piece was applied an aqueous solution containing 0.3 ppm PPO inhibitory-type herbicidal compound of Structure 8, while, to the other piece was not applied the compound. These leaf pieces were placed on MS medium containing 0.8% agar and allowed to stand at room temperature for 7 days in light place. Then, each leaf piece was ground with pestle and mortar in 5 ml of 80% aqueous acetone solution to extract chlorophyll. The extract liquid was diluted with 80% aqueous acetone solution and the absorbance was measured at 750 nm, 663 nm and 645 nm to calculate total chlorophyll content according to the method described by Macknney G., J. Biol. Chem. (1941) 140, p 315. The results obtained from 4 clones of tobacco into which bchH gene was introduced (BCH1 to 4) and control recombinant tobacco is shown in Table 4. In the table, the resistant level to the herbicidal compound was represented by percentages of the total chlorophyll content of leaf pieces treated with herbicidal compound to that of untreated leaf pieces.
The tobacco clone into which bchH gene was introduced and control recombinant tobacco were also treated in the same manner with the solution containing PPO inhibitory-type herbicidal compound represented by the above Structure 3, 7, 10, 11, 13, 17, 23, 24, 25, 27, 28, 30 or 35, and the resistant level to each herbicidal compound was measured. In the table, the resistant levels to the herbicidal compound were represented by percentages of the total chlorophyll content of leaf pieces treated with the herbicidal compound to that of untreated leaf pieces.

[2] = system: E. coli BT3/pACYCSP+pHASYS8 strain; assay: Growth of E. coli BT3/pACYCSP+pHASYS8 with herbicidal compound; format: cell-based, Escherichia coli; conditions: 1 ppm, 18 hours culture, Table 16

Question: Which results are given for `C#CCOc1cc(N2C(=O)C3=C(CCCC3)C2=O)c(F)cc1Cl` [Structure 8]?
Answer: activity at 0.3 ppm ([1]; clone BCH-1): 126%; activity at 0.3 ppm ([1]; clone BCH-2): 104%; activity at 0.3 ppm ([1]; clone BCH-3): 81.3%; activity at 0.3 ppm ([1]; clone BCH-4): 70.2%; Total chlorophyll content treated-leaf ([1]; clone BCH-1): 1.70 mg/g-fresh weight; Total chlorophyll content treated-leaf ([1]; clone BCH-2): 2.14 mg/g-fresh weight; Total chlorophyll content treated-leaf ([1]; clone BCH-3): 1.57 mg/g-fresh weight; Total chlorophyll content treated-leaf ([1]; clone BCH-4): 1.06 mg/g-fresh weight; Relative absorbance ([2]; in the dark): 1.0; Relative absorbance ([2]; in the light): 0.57
